This note sets out measurements from ChEMBL document CHEMBL4017441, “Mitigating the inhibition of human bile salt export pump by drugs: opportunities provided by physicochemical property modulation, in silico modeling, and structural modification” (Drug Metab Dispos, 2012).

A value given as a limit tells only on which side of the number the result lay.

In this test the target is Bile salt export pump (Homo sapiens, UniProt O95342). The test is classed as ADME.

The term IC50 denotes the concentration at which inhibition is half-maximal. Take `CCN(CC)CCOC(=O)C(Cc1cccc2ccccc12)CC1CCCO1` (configuration not stated) [NAFRONYL]: the IC50 is under 11 µM.
Then `CC1=C(C)C(=O)C(C(CCCCCC(=O)O)c2ccccc2)=C(C)C1=O` (configuration not stated) [SERATRODAST], with under 14.3 µM.
Then `c1ccc2[nH]c(-c3nc4ccccc4[nH]3)nc2c1`, with 31.3 µM.
Then `COc1cc(NC(C)CCCN)c2ncccc2c1` (configuration not stated) [PRIMAQUINE], with 53.1 µM; and `O=C1OC(OC(=O)c2cccnc2Nc2cccc(C(F)(F)F)c2)c2ccccc21` (configuration not stated) [TALNIFLUMATE], with over 1000 µM; and `C[C@@H]1C[C@H]2[C@@H]3CCC4=CC(=O)C=C[C@]4(C)[C@@]3(F)[C@@H](O)C[C@]2(C)[C@H]1C(=O)CO` [DESOXIMETASONE], with 16.4 µM.
For `Cc1cc(-c2ccc(N3C[C@H](Cn4ccnn4)OC3=O)cc2F)on1`, the IC50 was over 1000 µM.
As to `O=C(O)c1cc2c(OCCCO)cccc2n1Cc1ccc(Cl)c(Cl)c1`, the IC50 was under 14 µM.
The figure for `C[C@](O)(C(=O)Nc1ccc(C(=O)c2ccccc2)cc1)C(F)(F)F` [ZD-6169] is 21.4 µM; for `O=C(Nc1ccc(C(=O)O)c(O)c1)c1ccccc1` [BENZOYLPAS] it is over 1000 µM.
With `CC1(C)COC(=O)C1O` (configuration not stated), the IC50 is over 1000 µM.
The figure for `CC(CCc1ccccc1)NC(C)C(O)c1ccc(O)cc1` (configuration not stated) [NYLIDRIN] is 280 µM.
The figure for `Cc1cc(NS(=O)(=O)c2ccc(N)cc2)no1` [SULFAMETHOXAZOLE] is over 1000 µM.
As for `CC(=O)Nc1cc([As](=O)(O)O)ccc1O` [ACETARSONE], the IC50 is over 1000 µM.
Then `O=CN(O)C(CCCc1ncccn1)CS(=O)(=O)N1CCC(Oc2ccc(Cl)cn2)CC1` (configuration not stated), with under 10 µM; and `CC(c1cc2ccccc2s1)N(O)C(N)=O` (configuration not stated) [ZILEUTON], with over 751 µM.
As for `Cc1ccnc(NS(=O)(=O)c2ccc(N)cc2)n1` [SULFAMERAZINE], the IC50 was over 1000 µM.
Then `C[N+]1(C)CCCC(OC(=O)C(O)(c2ccccc2)c2ccccc2)C1` (configuration not stated) [MEPENZOLATE BROMIDE], with over 1000 µM; and `N[C@@H](Cc1ccc(N(CCCl)CCCl)cc1)C(=O)O`, with 93.7 µM; and `OCCN1CCN(CCCN2c3ccccc3Sc3ccc(C(F)(F)F)cc32)CC1` [FLUPHENAZINE], with 25.8 µM.
The figure for `CCCc1ncc(C[n+]2ccccc2C)c(N)n1` [AMPROLIUM ION] is over 1000 µM; for `C[C@]12CC[C@H]3[C@@H](CCC4=CC(=O)CC[C@@]43C)[C@@H]1CC[C@@H]2C(=O)CO` [DESOXYCORTICOSTERONE] it is 17.1 µM; for `Cc1nc(Nc2ncc(C(=O)Nc3c(C)cccc3Cl)s2)cc(N2CCN(CCO)CC2)n1` [DASATINIB] it is under 10 µM.
Consider `N[C@H](Cc1cc(I)c(Oc2cc(I)c(O)c(I)c2)c(I)c1)C(=O)O`, for which the half-maximal inhibitory concentration (IC50) was under 10 µM.
Then `CCCCC(=O)N(Cc1ccc(-c2ccccc2-c2nnn[nH]2)cc1)[C@H](C(=O)O)C(C)C`, with 31.1 µM.
The figure for `CC(Oc1ccccc1)C(=O)N[C@@H]1C(=O)N2[C@@H]1SC(C)(C)[C@@H]2C(=O)O` (some centres not stated) [PHENETHICILLIN] is under 10 µM; for `CC1=C(C/C=C(\C)CCCC(C)CCCC(C)CCCC(C)C)C(=O)c2ccccc2C1=O` (configuration not stated) it is over 1000 µM; for `O=C(O)c1cc2scnc2n1Cc1ccc(Cl)c(Cl)c1` it is 22.4 µM.
The figure for `[H]/N=C(/N)N/C(=N/[H])NCCc1ccccc1` [PHENFORMIN] is over 1000 µM; for `Nc1ccc(C(=O)NCC(=O)O)cc1` [AMINOHIPPURIC ACID] it is over 1000 µM; for `CSc1ccc2c(c1)N(CCC1CCCCN1C)c1ccccc1S2` (configuration not stated) [THIORIDAZINE] it is 24.3 µM.
Take `CC(C)(C)c1cc(C(C)(C)C)c2oc(C(=O)O)cc(=O)c2c1` [TERBUCROMIL]: the IC50 is under 10 µM.
The figure for `S=P(N1CC1)(N1CC1)N1CC1` [THIOTEPA] is over 1000 µM; for `CCN1CCCC1CNC(=O)c1cc(S(N)(=O)=O)ccc1OC` (configuration not stated) [SULPIRIDE] it is 276 µM.
Then `C[C@]12C=CC(=O)C=C1CC[C@H]1[C@@H]3C[C@@H](O)[C@](O)(C(=O)CO)[C@@]3(C)C[C@H](O)[C@@]12F` [TRIAMCINOLONE], with 236 µM; and `CNC(=O)c1cc(Oc2ccc(NC(=O)Nc3ccc(Cl)c(C(F)(F)F)c3)cc2)ccn1` [SORAFENIB], with under 10 µM.
The figure for `CO[C@H]1/C=C/O[C@@]2(C)Oc3c(C)c(O)c4c(c3C2=O)C2=NC3(CCN(CC(C)C)CC3)NC2=C(NC(=O)/C(C)=C\C=C\[C@H](C)[C@H](O)[C@@H](C)[C@@H](O)[C@H](C)[C@H](OC(C)=O)[C@H]1C)C4=O` is under 10 µM; for `c1ccc([C@H]2CN3CCSC3=N2)cc1` [LEVAMISOLE] it is over 1000 µM; for `CC(=O)Nc1ccccc1OC[C@@](C)(O)CNC1CCN(Cc2ccc(Cl)cc2)CC1` it is 71.5 µM.
Consider `COc1nc(C)cnc1NS(=O)(=O)c1cccnc1-c1ccc(CC(C)C)cc1`, for which the IC50 was determined as 19.5 µM.
Then `NS(=O)(=O)c1cc2c(cc1C(F)(F)F)NCNS2(=O)=O` [HYDROFLUMETHIAZIDE], with over 1000 µM.
The figure for `O=c1ccc2ccccc2o1` [COUMARIN] is over 1000 µM; for `CCCCCC(O)C1C(=O)OC(C)C(O)/C=C/C=C/C=C/C=C/C=C(/C)C(O)CC(O)CC(O)CC(O)CC(O)CC(O)CC1O` (configuration not stated) it is 164 µM.
Then `O=CN(O)C(CCc1ccccn1)CS(=O)(=O)N1CCN(c2ccc(Cl)cn2)CC1` (configuration not stated), with under 10 µM.
Consider `N=C(N)c1ccc(OCCCCCOc2ccc(C(=N)N)cc2)cc1` [PENTAMIDINE], for which the IC50 was over 1000 µM.
Then `C[C@@](O)(C(=O)Nc1ccc(S(=O)(=O)c2ccc(NCCO)cc2)cc1Cl)C(F)(F)F`, with 27.4 µM.
On to `CC(=O)O[C@]1(C(C)=O)CC[C@H]2[C@@H]3C=C(C)C4=CC(=O)CC[C@]4(C)[C@H]3CC[C@@]21C` [MEGESTROL ACETATE], for which the IC50 was under 10 µM.
In the case of `NCC1OC(OC2C(CO)OC(OC3C(O)C(N)CC(N)C3OC3OC(CN)C(O)C(O)C3N)C2O)C(N)C(O)C1O` (configuration not stated), the IC50 was over 1000 µM.
Then `CN(CCOc1ccc(NS(C)(=O)=O)cc1)CCc1ccc(NS(C)(=O)=O)cc1` [DOFETILIDE], with 708 µM; and `COc1c(OC)c(OC(C)=O)c2cc(Cl)ccc2c1OC(C)=O` [LONAPALENE], with 14.4 µM; and `CO[C@H]1C[C@@H]2CC[C@@H](C)[C@@](O)(O2)C(=O)C(=O)N2CCCC[C@H]2C(=O)O[C@H]([C@H](C)C[C@@H]2CC[C@@H](O)[C@H](OC)C2)CC(=O)[C@H](C)/C=C(\C)[C@@H](O)[C@@H](OC)C(=O)[C@H](C)C[C@H](C)/C=C/C=C/C=C/1C` [SIROLIMUS], with under 10 µM.
The figure for `Fc1ccc(C(c2ccc(F)cc2)N2CCN(C/C=C/c3ccccc3)CC2)cc1` [FLUNARIZINE] is under 10 µM.
Regarding `C[N+](C)(C)CC(=O)O` [BETAINE], the IC50 is over 1000 µM.
Then `O=C(O)c1ccc(NC(=O)[C@H](Cc2ccc(O)cc2)NC(=O)c2ccccc2)cc1` [BENTIROMIDE], with 235 µM; and `C1CCC(C(CC2CCCCN2)C2CCCCC2)CC1` (configuration not stated) [PERHEXILINE], with 14.4 µM.
Then `CN1CC[C@@]2(C)c3cc(OC(=O)N4CCc5ccccc5C4)ccc3N(C)[C@@H]12` [QUILOSTIGMINE], with under 10 µM.
Then `CN(C(=O)CN(CCO)CC(=O)N(C)C(C)(C)Cc1ccccc1)C(C)(C)Cc1ccccc1` [OXETHAZAINE], with under 10 µM; and `CC(=O)c1ccc2c(c1)N(CCCN(C)C)c1ccccc1S2` [ACEPROMAZINE], with 112 µM; and `C[N+]1(C)[C@@H]2C[C@@H](OC(=O)C(O)(c3cccs3)c3cccs3)C[C@H]1[C@@H]1O[C@@H]12` [TIOTROPIUM], with over 1000 µM.
Consider `O=CN(O)C(CCc1ccccc1)CS(=O)(=O)N1CCN(c2ccc(Cl)cn2)CC1` (configuration not stated), for which the IC50 was under 10 µM.
Then `Bc1ccc(S(=O)(=O)N2CCN(C(=O)N3CCN(c4cc(C)ncn4)CC3)CC2)cc1`, with under 10 µM; and `CCCCc1ccc2[nH]c(NC(=O)OC)nc2c1` [PARBENDAZOLE], with over 1000 µM.
The figure for `C[C@H](CCC(=O)O)[C@H]1CC[C@H]2[C@@H]3[C@@H](O)C[C@@H]4C[C@H](O)CC[C@]4(C)[C@H]3CC[C@]12C` [URSODIOL] is under 10 µM; for `CCS(=O)(=O)c1ccc(-c2cc(Cl)ccc2OCC(=O)O)c(F)c1` it is 168 µM; for `CCN(CC)CCOC(=O)c1ccc(N)cc1` [PROCAINE] it is over 1000 µM.
Then `Cc1ccc(C(=O)c2cc(O)c(O)c([N+](=O)[O-])c2)cc1` [TOLCAPONE], with under 33.9 µM; and `Cc1ccc2c(c1)c(-c1ccnc3c(Cl)cccc13)c(C)n2CC(=O)O`, with under 10 µM; and `NNCCc1ccccc1` [PHENELZINE], with over 897 µM.
With `C[C@H](NCc1ccc(OCc2ccccc2F)cc1)C(N)=O` [RALFINAMIDE], the IC50 was found to be 175 µM.
Then `COc1ccc(CC(N)C(=O)N[C@@H]2[C@@H](CO)OC(n3cnc4c(N(C)C)ncnc43)[C@@H]2O)cc1` (some centres not stated), with over 787 µM.
Then `O=[N+]([O-])c1cc([As](=O)(O)O)ccc1O` [ROXARSONE], with over 1000 µM; and `Cc1ccc(OC(C)(C)[C@H]2OC[C@@H](C/C=C\CCC(=O)O)[C@@H](c3cccnc3)O2)c([N+](=O)[O-])c1`, with under 10 µM; and `CC(CN(C)C)CN1c2ccccc2Sc2ccccc21` (configuration not stated) [METHYLPROMAZINE], with 73.7 µM.
Then `CN(C)CCOC(C)(c1ccccc1)c1ccccn1` (configuration not stated) [DOXYLAMINE], with over 1000 µM; and `CC(=O)Nc1ccccc1OC[C@@H](O)CNC1CCN(Cc2ccc(Cl)cc2)CC1`, with 55.6 µM; and `CCCCCCCCCCCCCCCCCCCCCCO` [DOCOSANOL], with over 1000 µM.
As to `COc1ccc2c(c1)CC[C@@H]1[C@@H]2CC[C@@]2(C)[C@H]1CC[C@@]2(O)C#N`, the IC50 is under 10 µM.
The figure for `O=C(O)CCCCCCCNC(=O)c1ccccc1O` [SALCAPROZIC ACID] is over 751 µM; for `O=C(O[C@H]1C[N+]2(CCCOc3ccccc3)CCC1CC2)C(O)(c1cccs1)c1cccs1` it is 127 µM; for `C[N+](C)(C)CCOC(N)=O` [CARBAMOYLCHOLINE] it is over 1000 µM.
The figure for `CC(COc1ccccc1)NC(C)C(O)c1ccc(O)cc1` (configuration not stated) [ISOXSUPRINE] is 573 µM.
Consider `CCCCc1cc2ccccc2c(OCCN(C)C)n1` [DIMETHISOQUIN], for which the IC50 was found to be 68.7 µM.
